Measurements from patent publication US9096544B2, “Therapeutic compounds” (Wayne State University, priority 2009, dated 2015).
In brackets after ≈: the same amount, converted by molar mass. Like-named read-outs stand apart in the source and are kept apart here.

Experiments:
[1] = Test H: aqueous solubility by UV absorbance; assay type: physicochemical; conditions: for solubility: 22° C.
Protocol: Standard curves at the UV λmax (330, 350 and 345 nm for 3-Cl-AHPC, 18 and 16, respectively) were generated using 0.245, 0.163, 0.049 and 0.025 mM 3-Cl-AHPC and 0.380, 0.178, 0.053 and 0.027 mM 18 and 16, which were prepared from 1.0% (wt/vol) solutions of compounds in Me2SO. […] Measurements for maximum solubilities in distilled water (pH 5) and phosphate-buffered saline (PBS, pH 7.2) at 22° C. were made by UV absorbance using solutions obtained after saturation at higher temperatures, overnight incubation at 22° C., and centrifugation to remove undissolved material.

FFMA-AML cells = assay: Annexin V-FITC binding by flow cytometry, FFMA-AML cells; assay type: cell-based, human; conditions: 1 μM, varying times
Protocol: FIG. 3 illustrates the induction of apoptosis and cell death as assessed using Annexin V-FITC binding together with propidium iodide (PI) staining. FFMA-AML and TF(vSRC) cells were exposed to 1 μM 3-Cl-AHPC or compound 16. A) Apoptosis in FFMA-AML and TF(vSRC) cells following 24 and 48 h ARR exposure, respectively. The plots show the distribution of classes of fluorescence intensity versus cell number. The bottom left quadrant represents live cells (both annexin V-FITC and PI negative); the bottom right quadrant represents early apoptotic cells (annexin V-FITC positive but PI negative); and the top right quadrant represents late apoptotic cells (both annexin V-FITC and PI positive). B) Percentage of early apopotic Annexin V-positive cells at the indicated times. […] (p values of <0.05, <0.01 and <0.001 respectively, as determined by the t test).
Apoptosis of cells was determined by (1) acridine orange and ethidium bromide-staining to assess cells with nuclear fragmentation and chromatin condensation as previously described (Farhana L. et al., Cancer Res. 2006; 65:4909-4917) and (2) flow cytometry assessing Annexin V-FITC binding together with propidium iodide staining (Annexin V-FITC apoptosis Detection kit 1, BD Biosciences, San Diego, Calif.). Data acquisition was done on a FACS Calibur flow cytometer (BD) and analyzed with CellQuest software. […]

TF(v-SRC) cells = assay: Test B: apoptosis of TF(v-SRC) cells (acridine orange/ethidium bromide, nuclear fragmentation); assay type: cell-based; conditions: nuclear fragmentation, FIG. 2A/B (96 h), read-out: ED50 of apoptosis induction
Protocol: FIG. 2 illustrates apoptosis induction in FFMA-AML and TF(v-SRC) cells by 3-Cl-AHPC and compound 16. Cells were seeded at 1×10^4 cells/ml, grown for 24 h and then exposed to 1 μM compound 16 or 3-Cl-AHPC A) at various concentrations of the compound for 96 h and B) for increasing times of exposure. C) Induction of apoptosis by 3-Cl-AHPC, all-trans-retinoic acid, 9-cis-retinoic acid and TTNPB in FFMA-AML and TF(v-SRC) cells. The percentage of apoptotic cells was determined using acridine orange and ethidium bromide staining to determine nuclear fragmentation as described in the general biochemical and pharmacological materials and methods. The error bars represent the mean of three separate determinations +/− the standard deviation (SD).
FFMA-AML cells were obtained from a patient with a diagnosis of AML as indicated by the immunophenotyping described in Table 1. This patient was refractory to the chemotherapy regimens consisting of cytosine arabinoside given with daunomycin as well as high-dose cytosine arabinoside. Peripheral blood samples were obtained from the patient utilizing a Wayne State University Institutional Review Board approved protocol and the leukemic blasts were isolated utilizing Ficoll hypaque. The isolated leukemic cells (representing >99% of the cells) were subsequently cultured in RPMI 1640 supplemented with 10% heat-inactivated fetal bovine serum (FBS) and growth factors interleukin 3 (IL-3), granulocyte-colony stimulating factor (G-CSF), granulocyte/macrophage colony-stimulating factor (GM-CSF), and stem cell factor (SCF) as we have previously reported, and then the cells were maintained in 10% FBS and gentamycin (Zhang Y. et al., Blood, 2003; […]:3743-3752). The TF(v-SRC) leukemia cells have been previously described (Black J. H. et al., Leukemia. 2003; 17:155-159). TF(v-SRC) cells were grown in RPMI 1640 supplemented with 10% heat inactivated FBS.
Apoptosis of cells was determined by (1) acridine orange and ethidium bromide-staining to assess cells with nuclear fragmentation and chromatin condensation as previously described (Farhana L. et al., Cancer Res. 2006; 65:4909-4917) and (2) flow cytometry assessing Annexin V-FITC binding together with propidium iodide staining (Annexin V-FITC apoptosis Detection kit 1, BD Biosciences, San Diego, Calif.). Data acquisition was done on a FACS Calibur flow cytometer (BD) and analyzed with CellQuest software.
Cells were grown in the presence and absence of increasing concentrations of either 3-Cl-AHPC or compound 16 and for varying periods of time. There was a progressive increase in 3-Cl-AHPC- and compound 16-mediated apoptosis in both FFMA-AML and TF(v-SRC) cells with time and with increasing concentrations of the compounds. […] We therefore tested the sensitivity of FFMA-AML and TF(v-SRC) cells to apoptosis induction by tRA, 9-cis RA, and TTNPB (FIG. 2C).

PANC-1 cells = assay: Test I: growth inhibition of PANC-1 cells (MTT); assay type: cell-based; conditions: 1 μM
Protocol: (§1) Pancreatic cancer cell lines (COLO357, PANC-1, Capan-2, AsPc-1 cells and MiaPaCa-2 cells obtained from American Type Culture Collection; ATCC, Rockville, Md.) were treated with 1 μM 3-Cl-AHPC and compound 16 for various times. Apoptosis in cells were analyzed by flow cytometry using Annexin V-FITC binding together with propidium iodide (PI) staining (Annexin V-FITC apoptosis Detection Kit 1, BD Biosciences, San Diego, Calif.). Data acquisition was done on a FACS Calibur flow cytometer (BD) and analyzed with CellQuest software (BD Biosciences). 3-Cl-AHPC and compound 16 mediated inhibition of cell growth were determined by 3-(4,5-dimethylthiazol-2-yl)-2,5-diphenyltetrazolium bromide (MTT) assay. The cells were seeded on 96-well plates at a density of 4×10^4 cells/well in a volume of 200 μl culture medium. 1 μM AHP3 and 3-Cl-AHPC in DMSO (final concentration 0.1%) were added to the cells for various times. […] After discarding the medium, MTT precipitates were solubilized with 200 μl DMSO and the plates read on a BioTeK Synergy HT (BioTeK Instrument Inc., Vermont) at an absorbance 570 nm. […] The spheroids were stained with acridine orange/ethidium bromide staining and immediately visualized and photographed with fluorescence microscope (OLYMPUS CKX41). […] Then spheroids were visualized and photographed with a fluorescence microscope.

MiaPaCa-2 cells = assay: Test I: apoptosis of MiaPaCa-2 pancreatic cancer cells (Annexin V-FITC/PI); assay type: cell-based; conditions: 1 μM, 72 h
Protocol: as §1

O=C(O)C=Cc1ccc(-c2ccc(O)c(C34CC5CC(CC(C5)C3)C4)c2)c(Cl)c1 [Compound 3-Cl-AHPC, 4-[3-(1-adamantyl)-4-hydroxyphenyl]-3-chlorocinnamic acid, reference compound]
Solubility (μM) at 22° C. PBS (pH 7.2) ([1]; PBS pH 7.2): Not detectable
solubility ([1]; thermodynamic from solid, distilled water pH 5, read-out: Solubility (μM) at 22° C. Distilled water (pH 5)): 4.5 µM (≈ 1.84 µg/mL)
annexin V-FITC-positive cells (FFMA-AML cells): progressive increase in annexin V-FITC-positive cells with time
EC50 (TF(v-SRC) cells): 750 nM
inhibition of growth (PANC-1 cells): significant inhibition of growth
induction of apoptosis (MiaPaCa-2 cells): Apoptosis was also noted

O=C(O)/C=C/c1cnc(-c2ccc(O)c(C34CC5CC(CC(C5)C3)C4)c2)nc1 [Compound 16, (E)-3-[2-(3-(1-Adamantyl)-4-hydroxyphenyl)-5-pyrimidinyl]-2-propenoic acid]
solubility ([1]; distilled water pH 5, read-out: Solubility (μM) at 22° C. Distilled water (pH 5)): 54 µM (≈ 20.3 µg/mL)
solubility ([1]; phosphate-buffered saline, aqueous buffer, thermodynamic from solid, PBS pH 7.2, read-out: Solubility (μM) at 22° C. PBS (pH 7.2)): 440 µM (≈ 166 µg/mL)
annexin V-FITC-positive cells (FFMA-AML cells): progressive increase in annexin V-FITC-positive cells with time
EC50 (TF(v-SRC) cells): 750 nM
inhibition of growth (PANC-1 cells): significant inhibition of growth
induction of apoptosis (MiaPaCa-2 cells): Apoptosis was also noted
